From patent publication US11980633B2, “Method for treating cancer using a combination of DNA-damaging agents and DNA-PK inhibitors” (Vertex Pharmaceuticals Incorporated, priority 2016, dated 2024)

Assays:
[1] = system: primary human NSCLC tumors (dissociated cells); assay: TCA: Compound B-1 with radiation (1-16 Gy), primary NSCLC tumors; assay type: cell-based; set-up: Average Bliss score: scale not given here
Method: (§1) In both studies, cell viability was assessed after 6 days in culture. Statistical analysis of the combination matrix was performed to assess whether synergy, additivity, or antagonism of the combination treatments were observed.
(§2) Materials: Primary patient samples (See Tables 16 and 17, below) were excised from mice when they reached 500 mg to 1000 mg in size and processed immediately, or after overnight shipment. Tumors were serially passaged by subcutaneous implantation of 50 mg to 150 mg fragments into the flanks of immunocompromised (nude) mice. Tumors were used within the first 5 or 7 passages.
(§3) Tumor Chemosensitivity Assay (TCA): Primary tumor samples were grown and serially passaged in immunocompromised mice. Tumors were mechanically dissociated into small fragments (1 mm to 2 mm) with scalpels in phosphate buffered saline (PBS or RPMI) and centrifuged at 200×g for 5 minutes at room temperature in 50 mL centrifuge tubes. Samples were resuspended in 10 mL of cell dissociation reagent and enzymatically digested with mechanical agitation for 1 to 3 hours at 37° C., 5% CO2 to a single cell suspension. Ten mL of complete RPMI-1640 media was added to the cell mixture and pipetted up and down 4 to 5 times. The mixture was then passed through a 70 μm or 100 μm mesh strainer to remove undigested tumor. The filtrate was then centrifuged 200×g for 5 minutes at room temperature and resuspended in 20 mL complete RPMI-1640. This cell suspension was slowly layered onto 20 mL of room temperature Histopaque and centrifuged at 400×g for 15 minutes at room temperature without a brake. The interface was transferred to a new 50 mL centrifuge tube and 15 mL of complete RPMI-1640 was added. This suspension was centrifuged at 200×g at room temperature, and the resulting pellet was resuspended in 10 mL of complete PC-1 media, except for pancreatic tumors in which case Pancreatic Medium was used. Cells were diluted in Trypan blue, and viable cells that excluded the dye were counted. Only the larger, tumor cells were included in the cell count. Cells were diluted in complete PC-1 or Pancreatic media, as appropriate for the cells, and were plated at 15,000 to 20,000 cells per well in 100-135 μL in ultra-low attachment U-bottom plates.
(§4) Compound Addition: For these studies, a 10 mM stock of the DNA-PK inhibitor (Compound B-1 or Compound B-2) was made in DMSO and used to add to cells from most tumors with HP D300 Digital Dispenser (Tecan US, Morrisville, NC, USA), or diluted into the appropriate media (PC-1 or pancreatic media) as a 5-10× stock and added to cells (OVX001 and ENX001, 005). PC-1, pancreatic media, and chemotherapeutics were also added so that final well volume was 150 μL. Doxorubicin was made as DMSO stock of 1 or 10 mM and added to cells for most tumors with HP D300 Digital Dispenser, or diluted into PC-1 as 5-10× stock and added to cells (OVX001 and ENX001, 005). Cisplatin (cis-diammine platinum(II), dichloride) was prepared fresh to 10 mM in warm (60° C.) distilled water and diluted in PC-1 as a 5-10× stock. […] Different starting concentrations, dose ranges, and number of doses were used for each experiment based on the response data available at the time.
In radiation experiments, a range of 1-16 Gy was administered using a cesium-137 source (GammaCell 40 Exactor, MDS Nordion, Ontario, Canada). These experiments were designed as a 6×5 matrix in triplicate. Each point of a 4-point concentration range of 0.15, 0.73, 1.5 and 2.2 μM Compound B-1 plus a ‘no treatment’ control in triplicate were added to 6 individual plates. The matrix was then assembled by exposure of each plate to 0, 1, 2, 4, 8, or 16 Gy of radiation.
Cells were cultured at 37° C., 5% CO2, 95% air and 100% relative humidity.
Viability Determination: Six days after compound addition, 75 μL of CellTiterGlo (prepared according to manufacturer's protocol) was added to each well of the compound titration plates. […]

[2] = system: pKAP1 and pH2AX levels in A549 cells; assay: pH2AX and pKAP1 immunoblot, Compound B-1 and etoposide in A549 lung cells; assay type: cell-based, human; settings: 3 μM Compound B-1 + 10 μM etoposide; at 8 h
Method: The human cancer cell lines A549 (CCL-185), DU4475 (HTB-123), MDA-MB-436 (HTB-130), and MDA-MB-468 (HTB-132) were obtained from American Type Culture Collection (ATCC; Manassas, VA).
The A549 human lung cancer cell line was purchased from ATCC and was cultured in DMEM supplemented with 10% fetal bovine serum, 1× non-essential amino acids and 1× Penicillin/Streptomycin (complete medium). Cells were maintained at a subconfluent state by passaging every 2-3 days. Human breast cancer cells lines DU4475, MDA-MB-436, and MDA-MB-468 were purchased from ATCC and cultured in DMEM supplemented with 10% fetal bovine serum, 1× Glutamax and Penicillin/Streptomycin. Cells were maintained at a subconfluent state by passaging every 2-3 days.
Cells were then incubated for the indicated amount of time and harvested for analysis.
A 15-μL aliquot of each SDS-PAGE sample was loaded onto 12-lane 4 20% Tris-Glycine gels and the gels were run at 125v constant voltage until the dye front reached the bottom (approximately 2 h). Following electrophoresis, separated proteins in the gels were transferred to a nitrocellulose membrane. Transfer was carried out for 2 h at 1.5 A constant current in a cold room using a Hoefer transfer apparatus (Model TE42 or TE62, Hoefer Inc, Holliston, MA) according to manufacturer's instructions. […]

[3] = system: primary human ovarian tumors (dissociated cells); assay: Tumor Chemosensitivity Assay (TCA): Compound B-2 with doxorubicin, primary ovarian tumors, viability after 6 days, Bliss; assay type: cell-based; set-up: Average Bliss score: scale not given here
Method: Specifically, one study described the combination of Compound B-2 and doxorubicin hydrochloride. In this study, a panel of primary human ovarian and endometrial tumors was dissociated and treated with Compound B-2 to determine the effectiveness of this selective DNA-PK inhibitor to enhance the activity of doxorubicin.
as §1, §2, §3, §4
For doxorubicin hydrochloride experiments, combinations with Compound B-2 at all concentrations were run in triplicate. A 6×3 matrix was designed on each plate: 0.73 μM and 2.2 μM Compound B-2, or 0.37 μM and 4.4 μM Compound B-2 on some tumors where additional cells were available, plus no treatment control, in 3 columns each of 6 wells. Doxorubicin hydrochloride (plus ‘no treatment’ control) was added to 9 wells in rows of this plate. […]

CNC(=O)c1ccnc2c([C@H](C)CNc3cc(-c4cnc(C)nc4)ncn3)cccc12 [Compound B-1]
tumors that showed synergy or additivity ([1]; 9 NSCLC tumors): 100%
tumors that showed strong synergy ([1]; three of 9 NSCLC tumors): 33%
Average Bliss score ([1]; tumor OD26131, Lung (NSCLC)): 12
Synergy/Additivity/Antagonism ([1]; tumor OD26131, Lung (NSCLC)): Strongly Synergistic (greater than 10 are considered strongly synergistic)
Average Bliss score ([1]; tumor OD26749, Lung (NSCLC)): 7
Synergy/Additivity/Antagonism ([1]; tumor OD26749, Lung (NSCLC)): Synergistic (greater than 5 are considered synergistic)
Average Bliss score ([1]; tumor OD29498, Lung (NSCLC)): 2
Synergy/Additivity/Antagonism ([1]; tumor OD29498, Lung (NSCLC)): Additive (Values between 5 and −5 are considered additive)
Average Bliss score ([1]; tumor OD33117, Lung (NSCLC)): 9
Synergy/Additivity/Antagonism ([1]; tumor OD33117, Lung (NSCLC)): Synergistic (greater than 5 are considered synergistic)
Average Bliss score ([1]; tumor OD33966, Lung (NSCLC)): 8
Synergy/Additivity/Antagonism ([1]; tumor OD33966, Lung (NSCLC)): Synergistic (greater than 5 are considered synergistic)
Average Bliss score ([1]; tumor OD35982, Lung (NSCLC)): 5
Synergy/Additivity/Antagonism ([1]; tumor OD35982, Lung (NSCLC)): Additive (Values between 5 and −5 are considered additive)
Average Bliss score ([1]; tumor OD36088, Lung (NSCLC)): 14
Synergy/Additivity/Antagonism ([1]; tumor OD36088, Lung (NSCLC)): Strongly Synergistic (greater than 10 are considered strongly synergistic)
Average Bliss score ([1]; tumor TS110310, Lung (NSCLC)): 16
Synergy/Additivity/Antagonism ([1]; tumor TS110310, Lung (NSCLC)): Strongly Synergistic (greater than 10 are considered strongly synergistic)
Average Bliss score ([1]; tumor YAS111611, Lung (NSCLC)): 1
Synergy/Additivity/Antagonism ([1]; tumor YAS111611, Lung (NSCLC)): Additive (Values between 5 and −5 are considered additive)
pH2AX level, max increase as compared to etoposide treatment alone [2]: 2 fold
pKAP1 level, max increase as compared to etoposide treatment alone [2]: 7 fold

[2H]c1nc(C)nc([2H])c1-c1cc(NC[C@@H](C)c2cccc3c(C(=O)NC)ccnc23)ncn1 [Compound B-2]
tumors that showed synergy or additivity ([3]; 11 ovarian tumors): 100%
tumors that showed strong synergy ([3]; four of 11 ovarian tumors): 36%
Average Bliss score ([3]; tumor CTG-0252 (Ovarian)): 14
Synergy/Additivity/Antagonism ([3]; tumor CTG-0252 (Ovarian)): Strongly Synergistic (greater than 10 are considered strongly synergistic)
Average Bliss score ([3]; tumor CTG-0253 (Ovarian)): 6
Synergy/Additivity/Antagonism ([3]; tumor CTG-0253 (Ovarian)): Synergistic (greater than 5 are considered synergistic)
Average Bliss score ([3]; tumor CTG-0258 (Ovarian)): 9
Synergy/Additivity/Antagonism ([3]; tumor CTG-0258 (Ovarian)): Synergistic (greater than 5 are considered synergistic)
Average Bliss score ([3]; tumor CTG-0486 (Ovarian)): 5
Synergy/Additivity/Antagonism ([3]; tumor CTG-0486 (Ovarian)): Additive (Values between 5 and −5 are considered additive)
Average Bliss score ([3]; tumor CTG-0791 (Ovarian)): 14
Synergy/Additivity/Antagonism ([3]; tumor CTG-0791 (Ovarian)): Strongly Synergistic (greater than 10 are considered strongly synergistic)
Average Bliss score ([3]; tumor CTG-0947 (Ovarian)): 10
Synergy/Additivity/Antagonism ([3]; tumor CTG-0947 (Ovarian)): Synergistic (greater than 5 are considered synergistic)
Average Bliss score ([3]; tumor CTG-0992 (Ovarian)): 8
Synergy/Additivity/Antagonism ([3]; tumor CTG-0992 (Ovarian)): Synergistic (greater than 5 are considered synergistic)
Average Bliss score ([3]; tumor CTG-1166 (Ovarian)): 8
Synergy/Additivity/Antagonism ([3]; tumor CTG-1166 (Ovarian)): Synergistic (greater than 5 are considered synergistic)
Average Bliss score ([3]; tumor CTG-1301 (Ovarian)): 8
Synergy/Additivity/Antagonism ([3]; tumor CTG-1301 (Ovarian)): Synergistic (greater than 5 are considered synergistic)
Average Bliss score ([3]; tumor CTG-1423 (Ovarian)): 12
Synergy/Additivity/Antagonism ([3]; tumor CTG-1423 (Ovarian)): Strongly Synergistic (greater than 10 are considered strongly synergistic)
Average Bliss score ([3]; tumor OVX001 (Ovarian)): 11
Synergy/Additivity/Antagonism ([3]; tumor OVX001 (Ovarian)): Strongly Synergistic (greater than 10 are considered strongly synergistic)
